# According to US7524864B2, “Methods of treating sleep disorders” (Hypnion, Inc., priority 2004, dated 2009):
# Read-outs that look alike come from different tables or passages of the source.
# Columns and labels:
# [1] = target: T1, human recombinant M1 expressed in CHO cells (Homo sapiens, UniProt P11229); settings: reference compounds; read-out: Ki of reference compounds in M1 binding assay; cited from earlier work
# T1 construct: purchased PerkinElmer, Inc., Wellesley, Mass; host or cells: CHO cells
# T1 sequence (P11229 1-460): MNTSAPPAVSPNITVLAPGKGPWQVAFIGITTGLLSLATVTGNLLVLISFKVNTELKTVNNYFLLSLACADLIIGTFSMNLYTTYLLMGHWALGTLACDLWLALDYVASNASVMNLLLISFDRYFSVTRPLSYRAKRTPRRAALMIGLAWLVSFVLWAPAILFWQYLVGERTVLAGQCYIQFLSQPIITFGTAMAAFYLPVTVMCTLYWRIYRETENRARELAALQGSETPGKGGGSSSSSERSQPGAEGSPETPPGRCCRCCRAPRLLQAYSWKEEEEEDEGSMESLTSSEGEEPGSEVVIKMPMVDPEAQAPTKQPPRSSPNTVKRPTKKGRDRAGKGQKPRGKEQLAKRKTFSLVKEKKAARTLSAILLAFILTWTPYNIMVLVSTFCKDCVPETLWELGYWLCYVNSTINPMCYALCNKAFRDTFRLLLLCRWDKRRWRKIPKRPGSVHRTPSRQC
# [2] = test system: sleep (NREM, LUSB) in male Wistar rats; assay: Sleep-wakefulness monitoring (SCORE-2000, EEG/EMG) in male Wistar rats; format: in vivo, rat; settings: oral, CT-18
# Description: Sleep-wakefulness, locomotor activity and body temperature are monitored in male Wistar rats treated with a test compound (i.e., doxepin analog) initially at a concentration of 10 mg/kg. Higher and lower doses are assayed for select compounds (e.g., as high as 45 mg/kg, and as low as necessary to establish a no-effect dose). Treatments are administered at CT-18, the peak of the activity dominated period (6 hours after lights-off), and produced soporific (sleep-inducing) effects characterized by increased non-REM sleep time, increased sleep continuity, but without evidence of REM sleep inhibition or rebound insomnia.
# Sleep-wakefulness, locomotor activity and body temperature are monitored in vivo with the disclosed sleep-inducing agents. Adult, male Wistar rats (250 g at time of surgery, Charles River Laboratories, Wilmington Mass.) were anesthetized (2% isoflourane in medical grade oxygen) and surgically prepared with a cranial implant to permit chronic electro-encephalogram (EEG) and electromyogram (EMG) recording. Body temperature and locomotor activity were monitored via a miniature transmitter (Mini-Mitter, Bend, Oreg.) surgically placed in the abdomen. The cranial implant consisted of stainless steel screws (two frontal [+3.2 AP from bregma, ±2.0 ML] and two occipital [−6.9 AP, ±5.5 ML]) for EEG recording. Two Teflon®-coated stainless steel wires were positioned under the nuchal trapezoid muscles for EMG recording. All leads were soldered to a miniature connector prior to surgery, and gas sterilized in ethylene oxide. The implant assembly was affixed to the skull with dental acrylic. A minimum of three weeks was allowed for surgical recovery.
# Each rat is permanently housed in its own individual recording cage located within separate, ventilated compartments of custom-designed stainless steel cabinets. Each cage is enhanced with a filter-top riser and low-torque swivel-commutator. Food and water are available ad libitum. A 24-hr light-dark cycle (12 hours light, 12 hours dark) is maintained throughout the study. Animals are undisturbed for at least 48 hours before and after treatments.
# Sleep and wakefulness is determined using “SCORE-2000™”(Hypnion, Worcester, Mass.)—an internet-based sleep-wake and physiological monitoring system. The system monitored amplified EEG (bandpass 1-30 Hz), integrated EMG (bandpass 10-100 Hz), body temperature and non-specific locomotor activity (LMA) via telemetry, and drinking activity, continuously and simultaneously. Arousal states are classified on-line as non-REM (NREM) sleep, REM sleep, wake, or theta-dominated wake every 10 seconds. Total drinking and locomotor activity counts, and body temperature were quantitiated and recorded each minute, using EEG feature extraction and pattern-matching algorithms. […] The classification algorithm used individually-taught EEG-arousal-state templates, plus EMG criteria to differentiate REM sleep from theta-dominated wakefulness, plus behavior-dependent contextual rules (e.g., if the animal was drinking, it is awake). Drinking and locomotor activity intensity (LMA) are recorded as discrete events every 10 seconds, while body temperature was recorded each minute. Locomotor activity was detected by a telemetry receiver (Mini-Mitter) beneath the cage. Telemetry measures (LMA and body temperature) are not part of the scoring algorithm; thus, sleep-scoring and telemetry data were independent measures.
# Compounds are administered at CT-18, the peak of the activity-dominated period, in order to ensure prior wakefulness is sufficient to interact positively with hypnotic-drug effects, and sufficient time is allowed to view the time course of the treatment effect before lights-on (6 hours post-treatment). Compounds are suspended in sterile 0.25% or 0.5% methylcellulose (1-2 ml/kg). Treatments are administered orally as a bolus.
# A parallel group study design is employed. […]
# [3] = target: T2, human recombinant M3 expressed in CHO cells (Homo sapiens, UniProt P20309); assay: M3 muscarinic receptor binding assay ([3H]-scopolamine, N-methyl chloride displacement); settings: Table 5; read-out: M3 inhibition constant Ki
# T2 construct: purchased PerkinElmer, Inc., Wellesley, Mass; host or cells: CHO cells
# T2 sequence (P20309 whole entry): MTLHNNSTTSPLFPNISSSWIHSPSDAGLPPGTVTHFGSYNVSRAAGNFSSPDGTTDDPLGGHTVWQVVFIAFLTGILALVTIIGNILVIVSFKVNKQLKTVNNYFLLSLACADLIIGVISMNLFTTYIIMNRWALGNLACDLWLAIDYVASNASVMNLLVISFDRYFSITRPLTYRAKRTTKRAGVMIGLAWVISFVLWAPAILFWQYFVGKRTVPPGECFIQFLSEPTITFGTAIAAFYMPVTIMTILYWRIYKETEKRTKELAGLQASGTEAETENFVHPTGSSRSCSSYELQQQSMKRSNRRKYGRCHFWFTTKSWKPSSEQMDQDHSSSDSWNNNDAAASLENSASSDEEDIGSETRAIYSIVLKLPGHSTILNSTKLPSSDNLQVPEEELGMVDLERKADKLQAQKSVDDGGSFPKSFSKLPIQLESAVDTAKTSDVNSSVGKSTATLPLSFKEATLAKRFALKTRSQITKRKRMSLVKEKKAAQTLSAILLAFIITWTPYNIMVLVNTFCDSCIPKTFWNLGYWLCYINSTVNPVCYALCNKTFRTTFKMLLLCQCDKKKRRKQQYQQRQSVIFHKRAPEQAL
# [4] = target: T3, human recombinant M2 expressed in CHO cells (Homo sapiens, UniProt P08172); assay: M2 muscarinic receptor binding assay ([3H]-scopolamine, N-methyl chloride displacement); settings: Table 5; read-out: M2 inhibition constant Ki
# T3 construct: purchased PerkinElmer, Inc., Wellesley, Mass; host or cells: CHO cells
# T3 sequence (P08172 1-466): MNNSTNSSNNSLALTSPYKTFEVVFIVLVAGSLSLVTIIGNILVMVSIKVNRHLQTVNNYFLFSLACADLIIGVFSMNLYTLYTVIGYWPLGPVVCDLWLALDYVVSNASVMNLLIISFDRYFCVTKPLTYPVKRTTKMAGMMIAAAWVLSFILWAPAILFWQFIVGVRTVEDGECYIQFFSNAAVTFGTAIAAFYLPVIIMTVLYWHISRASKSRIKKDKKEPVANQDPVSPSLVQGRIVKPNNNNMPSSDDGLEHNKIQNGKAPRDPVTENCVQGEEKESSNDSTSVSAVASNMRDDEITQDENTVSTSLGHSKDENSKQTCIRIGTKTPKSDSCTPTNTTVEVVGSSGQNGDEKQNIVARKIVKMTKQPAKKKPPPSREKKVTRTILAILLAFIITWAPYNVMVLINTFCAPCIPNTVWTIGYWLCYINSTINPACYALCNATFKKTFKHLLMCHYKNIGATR
# [5] = target: T1, human recombinant M1 expressed in CHO cells; assay: M1 muscarinic receptor binding assay ([3H]-scopolamine, N-methyl chloride displacement); settings: Table 5; read-out: M1 inhibition constant Ki
# H1 receptor = target: T4, H1 receptor (Bos taurus, UniProt P30546); assay: H1 histamine receptor competitive binding assay ([3H]pyrilamine displacement); design: species or system bovine
# T4 construct: the receptors are obtained from bovine cerebellar membrane tissue; from tissue; host or cells: bovine cerebellar membranes
# T4 sequence (P30546 whole entry): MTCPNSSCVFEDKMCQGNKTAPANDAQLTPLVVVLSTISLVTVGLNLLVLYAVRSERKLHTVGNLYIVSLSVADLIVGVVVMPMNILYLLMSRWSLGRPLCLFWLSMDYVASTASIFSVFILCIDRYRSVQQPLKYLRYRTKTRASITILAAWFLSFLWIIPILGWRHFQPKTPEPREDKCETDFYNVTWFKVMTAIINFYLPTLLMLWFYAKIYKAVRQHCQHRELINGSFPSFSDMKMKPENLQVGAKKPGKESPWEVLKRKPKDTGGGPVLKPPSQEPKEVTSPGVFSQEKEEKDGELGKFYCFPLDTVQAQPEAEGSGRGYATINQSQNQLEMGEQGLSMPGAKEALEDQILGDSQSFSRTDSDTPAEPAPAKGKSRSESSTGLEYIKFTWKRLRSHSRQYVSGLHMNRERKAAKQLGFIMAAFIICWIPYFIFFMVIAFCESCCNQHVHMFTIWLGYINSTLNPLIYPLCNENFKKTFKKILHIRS
Ki [3] [nM],Ki [4] [nM],Ki [5] [nM],"Ki (H1 receptor; bovine H1, Table 5, read-out: H1 (bovine) inhibition constant Ki) [nM]",Compound,Ki [1] [nM],LUSB (longest uninterrupted sleep bout) ([2]; 3 mg/kg) [min],LUSB (longest uninterrupted sleep bout) ([2]; 10 mg/kg) [min],NREM ([2]; 10 mg/kg) [min],LUSB (longest uninterrupted sleep bout) ([2]; 30 mg/kg) [min],NREM ([2]; 30 mg/kg) [min],LUSB (longest uninterrupted sleep bout) ([2]; 56 mg/kg) [min],NREM ([2]; 56 mg/kg) [min],LUSB (longest uninterrupted sleep bout) ([2]; 100 mg/kg) [min],NREM ([2]; 100 mg/kg) [min],"specificity for H1 over the muscarinic receptors (H1 receptor; H1 versus M1, M2, M3 Ki)"
,,,,C[N+]1(C)CCC(OC(=O)C(c2ccccc2)c2ccccc2)CC1 [4-DAMP methiodide],0.27,,,,,,,,,,
> 10000,> 10000,> 10000,50.6,CC(C)(CN1CCC(=C2c3ccc(F)cc3CSc3ccccc32)CC1)C(=O)O.Cl [Compound 8],,4.7 ± 3.2,6.3 ± 1.7,20 ± 5,10.9 ± 2.3,41 ± 9,9.3 ± 2.2,57 ± 7,13.2 ± 2.8,52 ± 8,specific for H1 over the muscarinic receptors
